Biological target: T1, XynR (WT) (Halalkalibacterium halodurans, UniProt P07528)
T1 construct: gene xynA; pET-21b(+)-XynR expressed in E. coli BL21(DE3), purified on HisTrap (His-tagged); residues 2-359 modelled in 2 chains; catalytic E150/E256
Assay: X-ray crystallography, […] A (co-crystallisation and soaking)
Assay type: binding
Settings: 0.35 M xylobiose, Tris-HCl pH 8.0 mixed with reservoir pH 4.6 (0.02 M CaCl2, acetate, MPD), 20 °C; active site, subsites +1 and +2

T1 sequence (P07528 46-396): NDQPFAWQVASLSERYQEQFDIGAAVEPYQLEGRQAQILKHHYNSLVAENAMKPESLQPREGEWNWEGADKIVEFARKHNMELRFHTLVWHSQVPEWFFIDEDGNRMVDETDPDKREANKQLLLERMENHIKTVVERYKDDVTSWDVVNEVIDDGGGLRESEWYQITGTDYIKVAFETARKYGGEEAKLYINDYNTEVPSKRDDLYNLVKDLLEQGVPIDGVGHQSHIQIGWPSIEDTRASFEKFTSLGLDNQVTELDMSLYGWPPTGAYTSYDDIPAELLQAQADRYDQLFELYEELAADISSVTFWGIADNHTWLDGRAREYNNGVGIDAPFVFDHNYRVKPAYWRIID

OC1OC[C@@H](O[C@@H]2OC[C@@H](O)[C@H](O)[C@H]2O)[C@H](O)[C@H]1O (stereo partly shown) [xylobiose]
X-ray crystallography, 1.80 A (co-crystallisation and soaking): we made crystallographic analysis of WT complexed with xylobiose
